Source: patent US4558142A, “7-Fluoro-prostacyclin analogs” (Hoffmann-La Roche Inc., priority 1982, dated 1985)

Tested on: platelet aggregation
Assay: inhibition of arachidonic acid-induced platelet aggregation in beagle platelet rich plasma (PRP), light transmission
Assay type: cell-based
Conditions: Canis lupus familiaris, arachidonic acid inducer, 37°
Description: That the prostacyclins of formulas I-A and I-B of this invention are active as anti-blood platelet aggregating agents can be seen from the administration of (5Z,7β,9α,11α,13E,15R)-7-fluoro-6,9-epoxy-11,15-dihydroxy-16,16-dimethyl-prosta-5,13-dien-1-oic acid methyl ester by the following test.
30 Ml. of blood was drawn from the jugular vein of a conscious beagle using two 15 ml. Vacutainer tubes, with no additive, connected to a 20 g. 1 inch multiple sample needle. The blood was immediately transferred to a 50 ml. conical plastic centrifuge tube containing 3 ml. of 3.8% sodium citrate (3.8 grams of sodium citrate crystal, Na3 C6 H5 O7.2H2 O, in 100 ml. of distilled water), capped and gently mixed. The citrated blood was centrifuged at 160 g. for 15 minutes at 20° C. The platelet rich plasma (PRP) was carefully withdrawn with a pipette, without disturbing the buffy coat and erythrocyte layers. The PRP was placed in 16×125 mm plastic tubes, capped and stored at room temperature 19°-21° C. PRP preparations showing a tinge of redness, indicative of hemolysis, were discarded. The remaining blood, after the removal of PRP, was recentrifuged at higher speed, 900 g. for 10 minutes, to yield platelet poor plasma (PPP). The PRP was used immediately and the aggregation study completed within three hours after preparation.
Platelet aggregation was measured with a Payton duel channel aggregation module connected to a duel pen recorder for the continuous recording of the increase in light transmission due to clumping of platelets. The 0-100% transmission scale was set with PRP (0%) and PPP (100%). The temperature was set at 37° and the stirring speed at 900 rpm. 0.45 Ml. of PRP was added to a cuvette containing a teflon coating stirring bar and prewarmed at 37° in a water bath. 5 μl of various concentrations of (5Z,7β,9α,11α,13E,15R)-7-fluoro-6,9-epoxy-11,15-dihydroxy-16,16-dimethyl-prosta-5,13-dien-1-oic acid methyl ester, diluted from a stock solution of 5×10^-4 M in DMSO (dimethylsulfoxide) with phosphate buffered saline containing 1 mg/ml. of bovine serum albumin, fraction V, was added and stirred for 1 minute. The inducer of aggregation, arachidonic acid, at a concentration which will cause 50-70% aggregation after 5 minutes, was then added in 50 μl of solution. The % inhibition, set forth in the following Table, was calculated from the ratio of the % aggregation with (5Z,7β,9α,11α,13E,15R)-7-fluoro-6,9-epoxy-11,15-dihydroxy-16,16-dimethyl-prosta-5,13-dien-1-oic acid methyl ester over that with the vehicle×100.
The preparation of phosphate buffered saline and arachidonic acid solution used above is as follows: Phosphate buffered saline (PBS) was prepared by adding 1 mM solution of sodium phosphate aqueous buffer, pH 7.4 to 0.85% by weight/volume of an aqueous sodium chloride solution. Arachidonic acid solution was prepared as follows: A stock solution of 10 mg. per ml. in absolute ETOH was prepared and stored in freezer. To make a 10 mM solution, 0.3 ml. of the stock solution was evaporated to near dryness under nitrogen and redissolved in 0.75 ml. of 0.02NH4 OH (freshly prepared) and 0.2 ml. of PBS. Further dilutions of arachidonic acid were made with NH4 OH and PBS mixture.

**Q.** For CCCCC(C)(C)[C@H](O)/C=C/[C@@H]1[C@@H]2[C@H](C[C@H]1O)O/C(=C\CCCC(=O)OC)[C@H]2F [(5Z,7β,9α,11α,13E,15R)-7-fluoro-6,9-epoxy-11,15-dihydroxy-16,16-dimethyl-prosta-5,13-dien-1-oic acid methyl ester], which inhibition at 0.0001 µM (concentration 1 × 10^-10 M) is on record?
**A.** The inhibition at 0.0001 µM was 20.8%.

**Q.** And the inhibition at 10 pM (concentration 1 × 10^-11 M)?
**A.** Its inhibition at 10 pM is 57.8%.

**Q.** And the inhibition at 1 pM (concentration 1 × 10^-12 M)?
**A.** The inhibition at 1 pM was 71.4%.

**Q.** And the inhibition at 100 fM (concentration 1 × 10^-13 M)?
**A.** Its inhibition at 100 fM is 14.2%.

**Q.** What about the inhibition at 300 fM (concentration 3 × 10^-13 M) of the same compound?
**A.** Its inhibition at 300 fM is 20.8%.
